# Positions count from the first letter of the chain named. Like-named read-outs stand apart in the source and are kept apart here.
# Assays:
# PTPN7/LC-PTP = biological target: T1, PTPN7/LC-PTP (Homo sapiens, UniProt P35236); experiment: Phosphatase panel, DiFMUP fluorescence assay; type: biochemical
# T1 construct: purchased Recation Biology Inc
# T1 sequence (P35236 1-360): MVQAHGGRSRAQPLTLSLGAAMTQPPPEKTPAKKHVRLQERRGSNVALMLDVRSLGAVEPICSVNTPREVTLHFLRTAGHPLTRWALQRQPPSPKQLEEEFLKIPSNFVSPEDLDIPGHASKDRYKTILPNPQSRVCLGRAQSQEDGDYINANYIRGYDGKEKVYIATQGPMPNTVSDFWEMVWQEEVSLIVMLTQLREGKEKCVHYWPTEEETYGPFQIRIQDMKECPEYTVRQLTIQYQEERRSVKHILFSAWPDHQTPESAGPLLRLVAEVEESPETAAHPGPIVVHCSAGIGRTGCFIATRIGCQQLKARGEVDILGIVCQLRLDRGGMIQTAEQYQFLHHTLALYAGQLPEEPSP
# PTPN11/SHP2-FL(E76K) = biological target: T2, PTPN11/SHP2-FL(E76K) (Homo sapiens, UniProt Q06124, E76K); experiment: Phosphatase panel, DiFMUP assay, E76K mutant
# T2 sequence (Q06124 2-597 isoform Q06124-1 E76K): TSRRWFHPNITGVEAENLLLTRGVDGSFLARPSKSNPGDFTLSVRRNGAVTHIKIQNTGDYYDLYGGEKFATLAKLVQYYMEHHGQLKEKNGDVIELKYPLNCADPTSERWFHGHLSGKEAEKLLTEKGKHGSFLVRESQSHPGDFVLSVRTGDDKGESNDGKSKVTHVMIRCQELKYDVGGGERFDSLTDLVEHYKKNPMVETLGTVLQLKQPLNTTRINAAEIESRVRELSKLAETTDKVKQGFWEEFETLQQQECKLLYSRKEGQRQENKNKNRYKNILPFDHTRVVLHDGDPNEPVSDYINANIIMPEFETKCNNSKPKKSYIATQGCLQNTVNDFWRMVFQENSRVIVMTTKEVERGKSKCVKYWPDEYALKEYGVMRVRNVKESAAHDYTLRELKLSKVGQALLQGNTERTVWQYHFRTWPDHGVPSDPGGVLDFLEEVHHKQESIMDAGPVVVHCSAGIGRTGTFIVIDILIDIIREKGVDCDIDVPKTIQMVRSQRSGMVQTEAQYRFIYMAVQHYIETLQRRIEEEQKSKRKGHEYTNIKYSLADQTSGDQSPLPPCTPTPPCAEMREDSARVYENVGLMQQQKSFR
# PTPN11/SHP2-FL = biological target: T3, PTPN11/SHP2-FL (Homo sapiens, UniProt Q06124); experiment: Phosphatase panel, DiFMUP assay with activating peptide
# T3 sequence (Q06124 2-597 isoform Q06124-1): T2 sequence (Q06124 2-597 isoform Q06124-1 E76K) with K75E
# PTPN6/SHP1 = biological target: T4, PTPN6/SHP1 (Homo sapiens, UniProt P29350); experiment: Phosphatase panel, DiFMUP fluorescence assay; type: biochemical
# T4 construct: purchased Recation Biology Inc
# T4 sequence (P29350 whole entry): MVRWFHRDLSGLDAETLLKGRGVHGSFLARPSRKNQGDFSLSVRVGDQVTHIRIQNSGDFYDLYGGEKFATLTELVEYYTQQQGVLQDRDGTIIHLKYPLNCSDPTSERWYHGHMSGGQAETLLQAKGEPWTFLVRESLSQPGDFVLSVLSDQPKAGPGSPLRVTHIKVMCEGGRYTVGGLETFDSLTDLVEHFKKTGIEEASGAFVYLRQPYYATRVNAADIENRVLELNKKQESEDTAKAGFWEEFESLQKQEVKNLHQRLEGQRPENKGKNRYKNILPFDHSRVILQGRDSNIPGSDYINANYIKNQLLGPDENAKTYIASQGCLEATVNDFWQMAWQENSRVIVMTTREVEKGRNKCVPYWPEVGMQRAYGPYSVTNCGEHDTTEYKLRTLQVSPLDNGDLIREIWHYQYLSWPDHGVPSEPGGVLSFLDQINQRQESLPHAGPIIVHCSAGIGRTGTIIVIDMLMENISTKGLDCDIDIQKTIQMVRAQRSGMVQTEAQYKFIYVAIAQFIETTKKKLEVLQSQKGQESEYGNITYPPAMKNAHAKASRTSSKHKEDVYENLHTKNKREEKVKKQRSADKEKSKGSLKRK
# PTPN2/TC-PTP = biological target: T5, PTPN2/TC-PTP (Homo sapiens, UniProt P17706); experiment: Phosphatase panel, DiFMUP fluorescence assay; type: biochemical
# T5 construct: purchased Recation Biology Inc
# T5 sequence (P17706 1-415): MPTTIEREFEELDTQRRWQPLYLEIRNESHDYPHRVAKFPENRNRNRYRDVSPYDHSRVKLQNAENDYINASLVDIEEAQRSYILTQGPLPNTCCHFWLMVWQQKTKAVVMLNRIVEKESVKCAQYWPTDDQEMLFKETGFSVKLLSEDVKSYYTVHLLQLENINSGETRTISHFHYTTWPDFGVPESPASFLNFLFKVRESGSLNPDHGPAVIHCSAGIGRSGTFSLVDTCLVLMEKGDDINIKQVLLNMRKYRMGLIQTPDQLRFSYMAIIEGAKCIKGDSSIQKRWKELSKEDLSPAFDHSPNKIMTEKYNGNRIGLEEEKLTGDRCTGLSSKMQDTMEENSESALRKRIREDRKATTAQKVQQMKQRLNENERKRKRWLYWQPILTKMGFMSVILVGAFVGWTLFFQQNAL
# [1] = Table 5C, read-out: Compound IC50 (M) PTPN7/LC-PTP
# [2] = Table 19A, read-out: inhibitory activity PTPN6/SHP1
# [3] = Table 19B, read-out: inhibitory activity PTPN2/TC-PTP
# [4] = Table 19B, read-out: inhibitory activity PTPN7/LC-PTP
SMILES,IC50 (PTPN7/LC-PTP; [1]) [M],IC50 (PTPN11/SHP2-FL(E76K)) [nM],IC50 (PTPN11/SHP2-FL) [nM],activity at PTPN6 (PTPN6/SHP1),"IC50 (PTPN6/SHP1; Table 5B, read-out: Compound IC50 (M) PTPN6/SHP1) [M]",IC50 (PTPN6/SHP1; [2]) [M],activity at PTPN2 (PTPN2/TC-PTP),"IC50 (PTPN2/TC-PTP; Table 5C, read-out: Compound IC50 (M) PTPN2/TC-PTP) [M]",IC50 (PTPN2/TC-PTP; [3]) [M],IC50 (PTPN7/LC-PTP; [4]) [M],"IC50 (PTPN6/SHP1; Table 18A, read-out: inhibitory activity PTPN6/SHP1) [M]","IC50 (PTPN2/TC-PTP; Table 18B, read-out: inhibitory activity PTPN2/TC-PTP) [M]","IC50 (PTPN7/LC-PTP; Table 18B, read-out: inhibitory activity PTPN7/LC-PTP) [M]"
"CC(C)[C@@H](CC[C@@H](C)[C@H]1CC[C@H]2[C@@H]3[C@H](O)C[C@H]4C[C@@H](NCCCNCCCCNCCCN)CC[C@]4(C)[C@H]3CC[C@]12C)OS(=O)(=O)O (single isomer, unassigned) [ENT-02 (MSI-1436), trodusquemine]",1.65e-06,292,752,–,–,–,–,–,–,–,–,–,–
"CC(CCC[C@@H](C)[C@H]1CCC2C3C(CC[C@@]21C)[C@@]1(C)CC[C@H](NCCCNCCCCNCCCN)C[C@@H]1C[C@H]3O)C(=O)O (single isomer, unassigned) [ENT-03]",6.34e-07,294,1420,inactive,> 0.0001,> 0.0001,inactive,> 0.0001,> 0.0001,6.34e-07,–,–,–
"CC(CCC[C@@H](C)[C@H]1CCC2C3C(CC(O)[C@@]21C)[C@@]1(C)CC[C@H](NCCCNCCCCN)C[C@@H]1C[C@H]3O)C(=O)O (single isomer, unassigned) [ENT-05]",–,43,976,–,–,–,–,–,–,–,> 0.0001,> 0.0001,3.97e-06
"CC(CCC[C@@H](C)[C@H]1CCC2C3C(CC[C@@]21C)[C@@]1(C)CC[C@H](NCCCNCCCCN)C[C@@H]1C[C@H]3O)C(=O)O (single isomer, unassigned) [ENT-06]",–,345,3170,–,–,> 0.0001,–,–,> 0.0001,1.05e-06,–,–,–

# Source: US20250228873A1, “C25 R AND S ISOMERS OF AMINOSTEROLS AND METHODS OF MAKING AND USING THE SAME” (Enterin, Inc., priority 2022, published 2025)
